Measurements taken from patent US6833372B2, “Non-peptide GnRH agents, Pharmaceutical compositions, and methods for their use” (Pfizer, Inc., priority 2002, dated 2004).
Read-outs that look alike come from different tables or passages of the source.

Assays:
[1] = In vitro metabolism: disappearance of parent compound in human liver microsomes; format: in vitro ADME; settings: 5 uM compound, 0.5 mg/ml protein, 2 mM NADPH, 30 minutes 37° C.
Method in brief: (§1)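 Microsomes from human, rat (male, female), dog and monkey liver incubated with 5 uM compound, 0.5 mg/ml protein and 2 mM NADPH in 50 mM K phosphate, pH 7.4, for 30 min at 37° C. Reaction stopped with acetonitrile; parent compound remaining measured by LC-MS.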

[2] = target: H S A (Homo sapiens, UniProt P02768); test: H S A column α; format: in vitro ADME
H S A, sequence (P02768 25-609): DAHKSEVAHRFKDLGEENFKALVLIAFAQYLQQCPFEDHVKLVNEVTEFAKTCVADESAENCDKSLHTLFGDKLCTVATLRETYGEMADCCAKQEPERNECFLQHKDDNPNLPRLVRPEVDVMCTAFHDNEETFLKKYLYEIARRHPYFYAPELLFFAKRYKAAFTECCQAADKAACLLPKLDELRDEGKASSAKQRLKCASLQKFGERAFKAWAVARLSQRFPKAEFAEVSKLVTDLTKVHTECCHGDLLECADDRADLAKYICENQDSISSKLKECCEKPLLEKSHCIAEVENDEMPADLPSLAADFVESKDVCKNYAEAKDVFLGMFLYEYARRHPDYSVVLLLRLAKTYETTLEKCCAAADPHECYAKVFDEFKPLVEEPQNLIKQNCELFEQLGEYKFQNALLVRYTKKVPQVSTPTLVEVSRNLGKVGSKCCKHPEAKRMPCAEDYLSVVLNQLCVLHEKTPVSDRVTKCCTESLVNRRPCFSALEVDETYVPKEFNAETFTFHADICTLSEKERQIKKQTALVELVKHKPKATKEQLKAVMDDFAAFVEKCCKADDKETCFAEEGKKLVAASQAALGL

[3] = Rat plasma % remain; format: in vitro ADME
[4] = Pharmacokinetics in rats (jugular vein cannula, plasma LC-MS); format: in vivo, Rat; settings: for Cmax / half-life / Tmax: rat, plasma, po
Description: Rats (male or female, 200-225 g) were prepared with indwelling jugular vein cannula as described by Harms et al., Applied Physiol. 36:391-398 (1974), and allowed to recover overnight with free access to the standard vivarium chow and water. […] […] The blood samples were withdrawn at specific times, plasma was immediately separated and compound extracted with ethyl acetate. The samples were analyzed by LC-MS using 30-90% gradient of ACN in 50 mM ammonium acetate.
The pharmacokinetic parameters were calculated using WinNonlin software (Scientific Consulting Inc.). The bioavailability was calculated as AUCp.o./AUCi.v., where AUCp.o. and AUC i.v. are areas under the plasma concentration-time curve after oral and i.v. administration, respectively.

[5] = In vitro metabolism: disappearance of parent compound in dog liver microsomes; format: in vitro ADME; settings: 5 uM compound, 30 minutes 37° C.
Method in brief: as §1

[6] = In vitro metabolism: disappearance of parent compound in rat liver microsomes (male, female); format: in vitro ADME; settings: 5 uM compound, 30 minutes 37° C.; for Fem. Rat (FR) % rem. 30′: female rat liver microsomes; for Male Rat (MR) % rem. 30′: male rat liver microsomes
Method in brief: as §1

[7] = In vitro metabolism: disappearance of parent compound in monkey liver microsomes; format: in vitro ADME; settings: 5 uM compound, 30 minutes 37° C.
Method in brief: as §1

[8] = target: T1, mouse GnRH receptors (Mus musculus, UniProt Q01776); test: Radioligand binding: inhibition of 125I-GnRH-A binding to mouse GnRH receptor membranes; settings: HEK 293 cell membranes
T1 construct: expressed in transfected cells; host or cells: HEK 293 cells, stably transfected; membranes
T1 sequence (Q01776 1-327): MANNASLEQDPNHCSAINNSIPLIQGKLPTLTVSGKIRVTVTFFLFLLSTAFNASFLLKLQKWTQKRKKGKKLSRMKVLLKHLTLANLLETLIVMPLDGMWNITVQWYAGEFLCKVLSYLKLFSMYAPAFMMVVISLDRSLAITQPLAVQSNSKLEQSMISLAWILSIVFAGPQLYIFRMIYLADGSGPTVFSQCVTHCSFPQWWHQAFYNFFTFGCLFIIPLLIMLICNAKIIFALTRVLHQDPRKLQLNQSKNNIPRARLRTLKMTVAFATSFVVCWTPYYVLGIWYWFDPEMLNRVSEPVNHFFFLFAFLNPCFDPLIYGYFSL
Description: HEK 293 cells stably transfected with mouse or human GnRH receptors as described above were grown in Dulbecco's high-glucose, modified Eagle's medium (DMEM) supplemented with 0.2% G418, 10% fetal bovine serum (FBS) and 100 U/mL penicillin/streptomycin. GH3 cells stably transfected with the rat GnRH receptor (GGH3) were provided by Dr. William Chin (Harvard Medical School, Boston, Mass.). These cells have been extensively characterized previously (Kaiser et al., 1997). The cells were grown in low glucose DMEM containing: 100U/mL penicillin/streptomycin, 0.6% G418 and 10% heat-inactivated FBS.
HEK 293 cells containing mouse or human receptors, or rat pituitaries (Pel Freez Biologicals, Rogers, Ark.) were homogenized in buffer A containing: 50 mM Tris (pH 7.4), 0.32 M sucrose, 2 mM EGTA, 1 mM PMSF, 5 μg/ml aprotinen, 5 μg/ml Pepstatin A, and 1 μg/ml leupeptin. Homogenized cells were centrifuged at 4° C. at 20,000×g for 25 minutes, re-suspended in buffer A and re-centrifuged at 4° C. at 20,000×g for an additional 25 minutes. Total membrane protein was determined with a BCA kit (Pierce, Rockford, Ill.). Membranes were stored at −70° C. at a final membrane protein concentration of approximately 5 mg/ml.
The radioiodinated agonist analog of GnRH, [des-Gly^10,D-Ala^6]GnRH ethylamide (^125I-GnRH-A), was used as the radioligand. […] The reaction mixture was vortexed and incubated for 1 minute at room temperature. After one minute, the mixture was vortexed and allowed to incubate for an additional minute. 2 ml of 0.5 M acetic acid/1% BSA was added to the reaction tube and the mixture was added to a C18 Sep-Pak cartridge. The cartridge was washed with subsequent washes of 5 ml H2O and 5 ml 0.5 M acetic acid and then eluted with 5×1 ml of 60% CH3CN/40% 0.5 M acetic acid. The eluate was diluted with 3× volume of HPLC buffer A (0.1% TFA in H2O) and loaded onto a C18 column. The iodinated product was eluted over 20-25 min with a gradient of 25-100% CH3CN containing 0.1% TFA. The radioactive fractions (750 μl/fraction) were collected into clean polypropylene tubes containing 100 μl of 10% BSA. Fractions were assessed for biological activity by radioligand binding. Specific activity of the radioligand was approximately 2200 Ci/mmol.
Membranes were diluted to 0.01-0.5 mg/ml (depending upon the species of receptor) with assay buffer containing 50 mM HEPES (pH 7.4), 1 mM EDTA, 2.5 mM MgCl2, and 0.1% BSA. Membranes (diluted to utilize similar receptor numbers between assays) were incubated with approximately 0.04-0.06 nM ^125I-GnRH-A in the presence or absence of competing agents (0.1-10,000 nM) in a total volume of 200 μl in 96-well polypropylene plates for 1 hour at room temperature. Assays were stopped by rapid filtration onto 96-well GF/C filters soaked in 0.1% polyethylenimine (PEI) utilizing a Packard 96-well cell harvester. Filters were washed three times with ice-cold PBS (50 mM NaPO4, 0.9% NaCl, 2 mM MgCl2, and 0.02% NaN3, pH 7.4). 35 μl of scintillation cocktail was added to each filter well and filters were counted on a Packard Topcount. Control dose-response curves were generated to GnRH (0.1 nM-100 nM) in each competition binding experiment. Ki values were calculated from IC50 values according to Cheng et al., Biochemical Pharmacol. 22: 3099-3108, 1973. [formula]

[9] = female rat, 10 mg/kg as 5 mg/ml solution in 10% DMSO, 10% cremophor, 80% saline (footnote 5)
[10] = female, 10 mg/kg, female rat, 10 mg/kg as 5 mg/ml solution in 10% DMSO, 10% cremophor, 80% saline (footnote 5), read-out: FR Cmax
[11] = female, 10 mg/kg, female rat, 10 mg/kg as 5 mg/ml solution in 10% DMSO, 10% cremophor, 80% saline (footnote 5), read-out: FR T1/2 hr (converted)
[12] = female, 10 mg/kg, female rat, 10 mg/kg as 5 mg/ml solution in 10% DMSO, 10% cremophor, 80% saline (footnote 5), read-out: FR Tmax hr

| SMILES | Human % rem. 30′ [1] [%] | H S A column α [2] | Rat plasma % remain [3] [%] | Dog % rem. 30′ [5] [%] | Fem. Rat (FR) % rem. 30′ [6] [%] | Male Rat (MR) % rem. 30′ [6] [%] | Monkey % rem. [7] [%] | Ki [8] [nM] | FR Fp.o. [4, 9] [%^5] | Cmax [4, 10] [nM] | half-life [4, 11] [h] | Tmax [4, 12] [h] | other results |
| --- | --- | --- | --- | --- | --- | --- | --- | --- | --- | --- | --- | --- | --- |
| COc1nc(OC)c(NC(=O)c2ccc(Cc3cc4c(cc3C)C(C)(C)OC4(C)C)o2)c(OC)n1 [Example A1, 5-(1,1,3,3,6-Pentamethyl-1,3-dihydro-isobenzofuran-5-ylmethyl)-furan-2-carboxylic Acid (2,4,6-trimethoxy-pyrimidin-5-yl)-amide] | 60 | 1 | 100 | 22 | 74 | 11 | 0 | 4.2 |  |  |  |  | FR Fp.o. ([4]; female rat, 10 mg/kg as 5 mg/ml solution in 10% DMSO 20% Labrasol, 70% saline (footnote 4)): 37%^4; Cmax ([4]; female, 10 mg/kg, female rat, 10 mg/kg as 5 mg/ml solution in 10% DMSO 20% Labrasol, 70% saline (footnote 4), read-out: FR Cmax): 1400 nM; half-life ([4]; female, 10 mg/kg, female rat, 10 mg/kg as 5 mg/ml solution in 10% DMSO 20% Labrasol, 70% saline (footnote 4), read-out: FR T1/2 hr (converted)): 5.1 h; Tmax ([4]; female, 10 mg/kg, female rat, 10 mg/kg as 5 mg/ml solution in 10% DMSO 20% Labrasol, 70% saline (footnote 4), read-out: FR Tmax hr): 1 h; MR Fp.o. ([4]; male rat, 10 mg/kg as 5 mg/ml solution in 10% DMSO, 20% Labrasol, 70% saline (footnote 1)): 6%^1; Cmax ([4]; male, 10 mg/kg, male rat, 10 mg/kg as 5 mg/ml solution in 10% DMSO, 20% Labrasol, 70% saline (footnote 1), read-out: MR Cmax): 100 nM; half-life ([4]; male, 10 mg/kg, male rat, 10 mg/kg as 5 mg/ml solution in 10% DMSO, 20% Labrasol, 70% saline (footnote 1), read-out: MR T1/2 hr (converted)): 1.5 h; Tmax ([4]; male, 10 mg/kg, male rat, 10 mg/kg as 5 mg/ml solution in 10% DMSO, 20% Labrasol, 70% saline (footnote 1), read-out: MR Tmax hr): 1 h |
| COc1nc(OCCO)nc(OC)c1NC(=O)c1ccc(Cc2cc3c(cc2C)C(C)(C)OC3(C)C)o1 [Example A3, 5-(1,1,3,3,6-Pentamethyl-1,3-dihydro-isobenzofuran-5-ylmethyl)-furan-2-carboxylic acid [2-(2-hydroxy-ethoxy)-4,6-dimethoxy-pyrimidin-5-yl]-amide] | 83 | 0.4 | 100 | 49 | 75 | 44 | 7 |  | 60 | 4000 | 2.2 | 1 | Cmax ([4]; male, 20 mg/kg, male rat, 20 mg/kg as 10 mg/ml in Labrasol/H2O 1/1 (footnote 2), read-out: MR Cmax): 3200 nM; Tmax ([4]; male, 20 mg/kg, male rat, 20 mg/kg as 10 mg/ml in Labrasol/H2O 1/1 (footnote 2), read-out: MR Tmax hr): 1 h; Cmax ([4]; male, 50 mg/kg, male rat, 50 mg/kg in 50 mg/ml PG (footnote 2), read-out: Cmax): 3700 nM; Tmax ([4]; male, 50 mg/kg, male rat, 50 mg/kg in 50 mg/ml PG (footnote 2), read-out: Tmax): 0.5 h |
| COc1nc(N(C)C)nc(OC)c1NC(=O)c1ccc(Cc2cc3c(cc2C)C(C)(C)CCC3(C)C)o1 [Example B2, 5-(3,5,5,8,8-Pentamethyl-5,6,7,8-tetrahydro-naphthalen-2-ylmethyl)-furan-2-carboxylic Acid (dimethylamino-dimethoxy-pyrimidin-5-yl)-amide] | 40 | >30 | 83 | 4 | 35 | 11 | 12 | 3.4 |  |  |  |  | FR Fp.o. ([4]; female rat, 6 mg/kg as 3 mg/ml solution in 6% DMSO, 6% cremophor, 88% saline (footnote 6)): 10%^6; Cmax ([4]; female, 6 mg/kg, female rat, 6 mg/kg as 3 mg/ml solution in 6% DMSO, 6% cremophor, 88% saline (footnote 6), read-out: FR Cmax): 900 nM; half-life ([4]; female, 6 mg/kg, female rat, 6 mg/kg as 3 mg/ml solution in 6% DMSO, 6% cremophor, 88% saline (footnote 6), read-out: FR T1/2 hr (converted)): 5.7 h; Tmax ([4]; female, 6 mg/kg, female rat, 6 mg/kg as 3 mg/ml solution in 6% DMSO, 6% cremophor, 88% saline (footnote 6), read-out: FR Tmax hr): 1 h |
| COc1nc(OC)c(NC(=O)c2ccc(Cc3cc4c(cc3C)C(C)(C)CCC4(C)C)o2)c(OC)n1 [Example C1, 5-(3,5,5,8,8-Pentamethyl-5,6,7,8-tetrahydro-naphthalen-2-ylmethyl)-furan-2-carboxylic Acid (2,4,6-trimethoxy-pyrimidin-5-yl)-amide] | 35 | 13 | 100 | 0 | 72 | 1 | 0 | 0.42 | 56 | 800 | 2 | 2 |  |
